Measurements as given in paper PMC7150891, “Mertansine Inhibits mRNA Expression and Enzyme Activities of Cytochrome P450s and Uridine 5′-Diphospho-Glucuronosyltransferases in Human Hepatocytes and Liver Microsomes” (Pharmaceutics, 2020).
Read-outs that look alike come from different tables or passages of the source. Marks after values point to notes of the source that are not given here. Blank lines part the entries; values can stand above or below the molecule they belong to. Where a SMILES comes first, the peptide text is derived from it. [ ]: non-standard residue; d: D form. The star is where a group is joined. Dolaproine = CO[C@@H]([C@@H]1CCCN1)[C@@H](C)C(=O)O; Dil = CC[C@H](C)[C@H](NC)[C@@H](CC(=O)O)OC; X1 = C[C@@H](N*)[C@@H](O)c1ccccc1; NMeV = CN[C@H](C(=O)O)C(C)C

Key:
CYP2B6 = test: CYP2B6-catalyzed bupropion hydroxylase activity in human hepatocytes after 48 h treatment; conditions: human, 48 h, 10 nM
Description: (§1) Samples were incubated for 48 h at 37 °C in 5% CO2, and the medium was exchanged with 250 μL of fresh medium containing drugs or the vehicle every 24 h.
(§2) The effects of mertansine on CYP1A2, CYP2B6, and CYP3A4 activities were evaluated. […] Mixtures were vortexed for 2 min and then centrifuged at 13,000 g for 4 min at 4 °C. The supernatant (40 µL) was diluted with 60 µL of deionized water and then mixed for 2 min by vortexing. An aliquot (5 µL) was analyzed using LC-MS/MS [37], and CYP1A2, CYP2B6, and CYP3A4 enzyme activities were expressed as formation rates (pmol/million cells/min).
(§3) The percentage changes in enzymatic activities were calculated as (CYP activity with test compound treatment/CYP activity with vehicle control treatment) × 100. The IC50 (the concentration of the inhibitor needed for half-maximal inhibition) values were calculated using SigmaPlot ver. […] Ki (the inhibition constant) and the inhibition mode of UGT1A1, UGT1A3, and UGT1A4 activities were determined using Enzyme Kinetics ver. 1.1 (Systat Software, Inc.).

CYP2B6 mRNA = CYP2B6 mRNA level in human hepatocytes after 48 h treatment (RT-PCR); format: cell-based; conditions: 48 h, 10 nM
Text: (§4) 12.5 (Systat Software, Inc.; San Jose, CA, USA). […] 1.1 (Systat Software, Inc.).

[1] = test system: CYP1A2, CYP2B6, and CYP3A4 mRNA; design: method as in PMID 22752008; conditions: three human hepatocytes, cited from earlier work
CYP activities = test system: CYP activities; design: method as in PMID 22752008; conditions: three human hepatocytes, cited from earlier work
CYP1A2 = test: CYP1A2-catalyzed phenacetin O-deethylase activity in human hepatocytes after 48 h treatment; conditions: 48 h; for Enzyme Activities: CYP1A2-catalyzed phenacetin O-deethylase activity: Omeprazole 50 μM
Description: as §1, §2, §3

UGT1A4 mRNA = UGT1A4 mRNA level in human hepatocytes after 48 h treatment (RT-PCR); conditions: 50 μM omeprazole, 48 h, range over three human hepatocytes
UGT1A1 mRNA = UGT1A1 mRNA level in human hepatocytes after 48 h treatment (RT-PCR); conditions: 48 h
CYP1A2 mRNA = CYP1A2 mRNA level in human hepatocytes after 48 h treatment (RT-PCR); format: cell-based; conditions: 48 h, 50 µM
Text: as §4

CYP2C19 mRNA = conditions: human, hepatocytes, 48 h, 10 μM
CYP2C8 mRNA = conditions: human, hepatocytes, 48 h, 10 μM
[2] = test system: HER2-positive metastatic breast cancer; conditions: five randomized clinical trials, 3,720 patients; cited from earlier work

Increase of CYP2B6-mediated bupropion hydroxylase activity (CYP2B6): 3.8–15.7 fold
Increase of CYP2B6 mRNA levels (CYP2B6 mRNA): 5.6–8.7 fold
Molecule: Clc1ccc(-c2nc3sccn3c2C=NOCc2ccc(Cl)c(Cl)c2)cc1 [CITCO, 6-(4-chlorophenyl)imidazo[2,1-b](1,3)thiazole-5-carbaldehyde-O-(3,4-dichlorobenzyl)oxime]

Molecule: CC[C@H](C)[C@@H]([C@@H](CC(=O)N1CCC[C@H]1[C@H](OC)[C@@H](C)C(=O)N[C@H](C)[C@@H](O)c1ccccc1)OC)N(C)C(=O)[C@@H](NC(=O)[C@@H](NC)C(C)C)C(C)C [MMAE, monomethyl auristatin E] (H-[NMeV]V[Dil][Dolaproine]-X1)
Suppression of CYP1A2, CYP2B6, and CYP3A4 mRNA expression ([1]; 100 nM MMAE): 61–90%
Suppression of CYP1A2, CYP2B6, and CYP3A4 mRNA expression ([1]; 1000 nM MMAE): 95–97%
Decrease of CYP activities (CYP activities; 100 nM MMAE): 40–71%
Decrease of CYP activities (CYP activities; 1000 nM MMAE): 45–81%

Increase of CYP1A2-mediated phenacetin O-deethylase activity (CYP1A2; 50 µM omeprazole, vs vehicle, range over three human hepatocytes): 11.7–61.8 fold
Enzyme Activities: CYP1A2-catalyzed phenacetin O-deethylase activity (CYP1A2; Lot 319): 18.5 ± 3.3 ^a pmol/10^6 Cells/min
Enzyme Activities: CYP1A2-catalyzed phenacetin O-deethylase activity (CYP1A2; Lot 321): 89.45 ± 4.52 ^a pmol/10^6 Cells/min
Enzyme Activities: CYP1A2-catalyzed phenacetin O-deethylase activity (CYP1A2; Lot 361): 81.0 ± 0.53 ^a pmol/10^6 Cells/min
Increase of CYP1A2 mRNA levels (CYP1A2 mRNA): 58.7–299.3 fold
Molecule: COc1ccc2[nH]c([S+]([O-])Cc3ncc(C)c(OC)c3C)nc2c1 (centres unmarked) [Omeprazole, omeprazole]
Increase of UGT1A4 mRNA levels (UGT1A4 mRNA): 3.3–4.1 fold
Increase of UGT1A1 mRNA levels (UGT1A1 mRNA; 50 μM omeprazole, range over three human hepatocytes): 3.9–7.0 fold
UGT1A1 mRNA (Fold Change) (UGT1A1 mRNA; Omeprazole 50 μM, Lot 319): 6.97 ± 0.94 Fold Change

Increase of CYP2C19 mRNA levels (CYP2C19 mRNA): 2.0–2.2 fold
Increase of CYP2C8 mRNA levels (CYP2C8 mRNA): 3.7–4.8 fold
Molecule: CO[C@H]1/C=C/O[C@@]2(C)Oc3c(C)c(O)c4c(O)c(c(/C=N/N5CCN(C)CC5)c(O)c4c3C2=O)NC(=O)/C(C)=C\C=C\[C@H](C)[C@H](O)[C@@H](C)[C@@H](O)[C@@H](C)[C@H](OC(C)=O)[C@@H]1C [Rifampin, rifampin]

Molecule: trastuzumab emtansine [T-DM1]
Progression-free survival and overall survival compared to other anti-HER2 therapies [2]: significantly prolonged
